In test [1] the test system is mice overexpressing CRH in the forebrain. The note with it: Kimura et al., Mol. Psychiatry 2010; cited from earlier work.
For the next test, the system named is CRH-COE^CNS mice. The test is described as follows: REMS activity (EEG/EMG sleep recording) in CRH-overexpressing CRH-COE^CNS mice. Conditions: 50 mg/kg/d via drinking water; for REMS activity: treatment days vs baseline, effect beginning with treatment day two.
Test [2] has as its system control littermates (CL) of CRH-COE^CNS mice. Nature of the test: REMS activity (EEG/EMG sleep recording) in control littermates of the CRH-COE^CNS line. The note with it: 50 mg/kg/d via drinking water.
Experimental: (§1) Experiments were conducted with two different mouse lines of excessive central CRH secretion and their respective control littermates (CL). Mice of the CRH-COE^CNS line are characterised by CRH-overexpression within the whole CNS, whereas mice of the Cor26 CRH line display a CRH-overexpression specific to CRH-ergic neurons of the CNS. Three different CRHR1 antagonists were tested. […] In all cases, animals were left to recover from EEG/EMG-electrode implantation for two weeks, after which two days of baseline recording were initiated. Treatment with CRH-R1 antagonist or respective vehicle control commenced thereafter for five consecutive days. Antagonists were applied through the drinking water at a daily dose of 50 mg/kg body weight. EEG and EMG recordings were manually scored as wake, non-REMS (NREMS), and REMS in four second epochs by an experienced evaluator.
For a further test, the system named is Cor26 CRH mice. The test is described as follows: REMS levels (EEG/EMG sleep recording) in CRH-overexpressing Cor26 CRH mice. Conditions: 50 mg/kg/d via drinking water.
The subject of test [3] is control littermates (CL) of Cor26 CRH mice. Nature of the test: REMS levels (EEG/EMG sleep recording) in control littermates of the Cor26 CRH line. The note with it: 50 mg/kg/d via drinking water.
Experimental: as §1

For the compound `COCC(COC)Nc1nc(C)nc2c(-c3ccc(Cl)cc3Cl)c(C)nn12` [DMP-696], the REM enhancement entry in test [1] is reported as “could reverse the REM enhancement”. For the same compound, the “REMS suppression relative to baseline REMS-levels of CL” value in the test on CRH-COE^CNS mice is given as “never exceeded baseline REMS-levels of CL”. Besides, the “treatment day of strongest suppression of REMS activity” value in the test on CRH-COE^CNS mice is reported as “treatment day three”. The REMS activity entry in the test with CRH-COE^CNS mice (50 mg/kg/day) is given as “significant decrease in REMS activity”; in the test on CRH-COE^CNS mice (listed as DMP696, 50 mg/kg/day) it was “suppressed”; in test [2], “only a mild suppression of REMS”.
Take `CCC(CC)Oc1cc(C)nc(Oc2c(C)cc(C)cc2C)c1C` [CP-316,311]: the REMS levels entry is “apparently seemed weak” with Cor26 CRH mice (50 mg/kg/day); “suppressed” in the test with Cor26 CRH mice (listed as CP-316311, 50 mg/kg/day); “no significant effect” in test [3]. Moreover, in the test with Cor26 CRH mice (baseline vs treatment day three, P=0.006), the “REMS levels, area under the curve (AUC) within the light period” value was “significant decrease”.

(Values after patent publication US10190168B2, “Method for predicting a treatment response to a CRHR1 antagonist and/or a V1B antagonist in a patient with depressive and/or anxiety symptoms” (MAX-PLANCK-GESELLSCHAFT ZUR FÖRDERUNG DER WISSENSCHAFTEN …, priority 2013, dated 2019).)
